From patent US5583108A, “Vasonatrin peptide and analogs thereof” (Mayo Foundation for Medical Education and Research, priority 1994, dated 1996)

Columns and labels:
[1] = tested on: isolated normal canine blood vessels; assay: Organ chamber isometric force: relaxation of phenylephrine-contracted vessel rings; set-up: species or system dog; conditions: for relaxation: maximal dose (3×10^-6 M); for maximal response, percent change in tension from a contraction to phenylephrine: peptide 3 × 10^-6 M, mean ± SEM
Procedure: (§1) The results obtained are expressed as the means ±SEM. In organ chamber studies, n equals the number of dogs from which rings were taken. Rings with and without endothelium were studied in parallel, and Student's t-test for unpaired observations was used to determine statistical significance among the responses of rings with and without endothelium and between responses of arteries and veins. In rat studies, the data were analyzed using ANOVA for repeated measures followed by Fisher's least significant difference test when appropriate within the group. Data between groups were analyzed by Student's unpaired t-test. Statistical significance was determined at p<0.05.
Rings cut from femoral, saphenous, renal and pulmonary arteries and veins obtained from random source mongrel dogs (anesthetized with 30 mg/kg pentobarbital sodium intravenously) were suspended for the measurement of isometric force in organ chambers filled with aerated (95% O2 and 5% CO2) modified Krebs-Ringer bicarbonate solution (composition in mM: 118.3 NaCl, 4.7 KCl, 2.5 CaCl2, 1.2 MgSO4, 1.2 KH2 PO4, 25.0 NaHCO3, 0.026 calcium sodium EDTA, and 11.1 dextrose; control solution) at 37° C. In one-half rings, the endothelium was removed by gently rubbing the intimal surface with a cotton swab wetted with control solution. Each ring was stretched to the optimal point on its length-tension curve as determined by the tension developed to norepinephrine (3×10^-7 M) at each level of stretch. The presence of endothelium was determined at the beginning of the experiment by a relaxation to acetylcholine (10^-6 M) during a contraction to norepinephrine at optimal length. The maximal tension of each ring was determined by norepinephrine (10^-4 M). To study responses to ANP, CNP and VNP, the rings were contracted with phenylephrine (10^-6 M). These contractions averaged 30-40% of the maximal contraction to norepinephrine. The peptides were added cumulatively once the contraction had stabilized.
The following commercially available drugs were used: acetylcholine chloride (Sigma Chemical, St. Louis, Mo.), human ANP and human CNP (Peninsula Laboratories, Belmont, Calif.), L-norepinephrine bitartrate (Sigma), phenylephrine bitartrate (Sigma). All drugs were dissolved in distilled water immediately prior to study, and the concentrations are reported as the final molar concentration (M) in the organ chamber.

normal rats = assay: Cardiorenal actions after intravenous bolus in anesthetized normal rats; format: in vivo, Wistar rats; conditions: for MAP mean arterial pressure / HR heart rate / RAP right atrial pressure / UKV urine potassium excretion / UNaV urine sodium excretion / UV urine volume / UcGMPV urine cGMP volume / PcGMP plasma cGMP: mean ± SEM; for MAP mean arterial pressure: n = 4
Procedure: as §1
Experiments were conducted in accordance with the Animal Welfare Act. Wistar rats and spontaneously hypertensive rats (SHR) (400 g; Harlan Sprague-Dawley, Indianapolis, Ind.) were anesthetized with Inactin (100 mg/kg; intraperitoneal; BYK Gulden, Konstanz, Germany). The body temperature was maintained between 36° and 38° C. by a heating pad. Tracheostomy was performed; however, the animals were not artificially ventilated. Polyethylene catheters (PE-50; Becton Dickinson Co., Parsippany, N.J.) were placed in the left Jugular vein for infusions of saline and drugs, in the right jugular vein to right atrium to monitor right atrial pressure, and in the carotid artery for the collection of blood samples and to monitor mean arterial pressure. A PE-90 catheter was placed in the bladder for urine collection.
Experiments were conducted in three groups in normal rats: ANP group (n=4), CNP group (n=4), and VNP group (n=4). VNP also was studied in SHR rats (n=4). Intravenous infusions of saline solution (0.9% NaCl) were performed (1 ml/100 gm body weight/hr) through the left jugular vein catheter. After completion of surgery, rats were allowed to stabilize for 30 minutes. In each group, a 15-min baseline period followed. After the baseline period, saline solution (0.9% NaCl) was administered in a bolus fashion (0.1 ml) and was followed by a 15-min period. After the saline period, the peptide (ANP, CNP or VNP) was administered in a bolus fashion (0.1 ml) at 5 μg/kg which was followed by a 15-min period. This was followed by a second bolus (0.1 ml) at 50 μg/kg and a 15-min period. After a 30-min washout, a 15-min recovery period followed. During each experimental period, mean arterial pressure (MAP), heart rate (HR), and right atrial pressure (RAP) were measured. At the midpoint of baseline, second bolus fashion (50 μg/kg) and recovery periods, blood was sampled for plasma cGMP. At the end of each period, urine was measured for volume (UV), and samples were stored for electrolytes and cGMP analysis.
Blood for plasma cGMP analysis was collected into EDTA tubes, immediately placed on ice, and centrifuged at […] at 4° C. Plasma was separated and stored at -20° C. until assay. Urine for cGMP determination was heated to >90° C. before storage. Plasma and urine cGMP were determined by a specific RIA as previously described by A. L. Steiner et al., J. Hypertension, 5 (Suppl. 5) 551-553 (1987).

[2] = normal rats, high dose (50 μg/kg) bolus

**Q.** Which relaxation ([1]; femoral and saphenous arteries) does the source give for `CC[C@H](C)[C@@H]1NC(=O)[C@H](CCCNC(=N)N)NC(=O)[C@H](CC(=O)O)NC(=O)[C@H](CCSC)NC(=O)[C@H](CCCNC(=N)N)NC(=O)CNC(=O)CNC(=O)[C@H](Cc2ccccc2)NC(=O)[C@@H](NC(=O)[C@H](CO)NC(=O)[C@H](CO)NC(=O)[C@H](CCCNC(=N)N)NC(=O)[C@H](CCCNC(=N)N)NC(=O)[C@H](CC(C)C)NC(=O)[C@@H](N)CO)CSSC[C@@H](C(=O)N[C@@H](CC(N)=O)C(=O)N[C@@H](CO)C(=O)N[C@@H](Cc2ccccc2)C(=O)N[C@@H](CCCNC(=N)N)C(=O)N[C@@H](Cc2ccc(O)cc2)C(=O)O)NC(=O)CNC(=O)[C@H](CC(C)C)NC(=O)CNC(=O)[C@H](CO)NC(=O)[C@H](CCC(N)=O)NC(=O)[C@H](C)NC(=O)CNC1=O` [ANP, atrial natriuretic peptide] here?
**A.** no effects

**Q.** What about the “maximal response, percent change in tension from a contraction to phenylephrine” value (shortened to “maximal response, percent change”) ([1]; femoral artery, with endothelium, phenylephrine 10^-6 M) of the same compound?
**A.** 10 ± 5%

**Q.** And the “maximal response, percent change” value ([1]; femoral artery, without endothelium)?
**A.** 19 ± 12%

**Q.** And the “maximal response, percent change” value ([1]; femoral vein, with endothelium)?
**A.** 6 ± 3%

**Q.** What about the “maximal response, percent change” value ([1]; femoral vein, without endothelium) of the same compound?
**A.** 4 ± 4%

**Q.** What about the relaxation ([1]; femoral veins) of the same compound?
**A.** no effect

**Q.** What about the “maximal response, percent change” value ([1]; pulmonary artery, with endothelium) of the same compound?
**A.** 60 ± 7%

**Q.** And the “maximal response, percent change” value ([1]; pulmonary artery, without endothelium)?
**A.** 75 ± 8%

**Q.** And the “maximal response, percent change” value ([1]; pulmonary vein, with endothelium)?
**A.** 49 ± 5%

**Q.** And the “maximal response, percent change” value ([1]; pulmonary vein, without endothelium)?
**A.** 16 ± 3%

**Q.** And the “maximal response, percent change” value ([1]; renal artery, with endothelium)?
**A.** 27 ± 6%

**Q.** And the “maximal response, percent change” value ([1]; renal artery, without endothelium)?
**A.** 30 ± 6%

**Q.** What about the “maximal response, percent change” value ([1]; renal vein, with endothelium) of the same compound?
**A.** 12 ± 3%

**Q.** What about the “maximal response, percent change” value ([1]; renal vein, without endothelium) of the same compound?
**A.** 11 ± 4%

**Q.** And the “maximal response, percent change” value ([1]; saphenous artery, with endothelium)?
**A.** 0 ± 0%

**Q.** And the “maximal response, percent change” value ([1]; saphenous artery, without endothelium)?
**A.** 3 ± 3%

**Q.** And the “maximal response, percent change” value ([1]; saphenous vein, with endothelium)?
**A.** 0 ± 0%

**Q.** What about the “maximal response, percent change” value ([1]; saphenous vein, without endothelium) of the same compound?
**A.** 0 ± 0%

**Q.** And the relaxation ([1]; saphenous veins)?
**A.** no effect

**Q.** What about the “relaxation, % of the contraction to phenylephrine” value ([1]; systemic arteries (femoral, saphenous and renal)) of the same compound?
**A.** less than 30%

**Q.** What about the “natriuretic action (in words)” value (normal rats; in vivo, rat) of the same compound?
**A.** potent natriuretic

**Q.** And the “change in MAP and RAP (in words)” value (normal rats; [2])?
**A.** significant decrease

**Q.** What about the “change in urine flow, sodium excretion, plasma cGMP and urinary cGMP volume (in words)” value (normal rats; [2]) of the same compound?
**A.** increased

**Q.** And the “MAP mean arterial pressure” value (normal rats; normal rats, iv bolus 5 μg/kg, 15-min period)?
**A.** 97 ± 12 mmHg

**Q.** What about the HR heart rate (normal rats; normal rats, iv bolus 5 μg/kg) of the same compound?
**A.** 353 ± 14 beats/min

**Q.** What about the “RAP right atrial pressure” value (normal rats; normal rats, iv bolus 5 μg/kg) of the same compound?
**A.** -2.3 ± 0.8 mmHg

**Q.** And the “UKV urine potassium excretion” value (normal rats; normal rats, iv bolus 5 μg/kg)?
**A.** 10.3 ± 3.5 µmol/min

**Q.** What about the “UNaV urine sodium excretion” value (normal rats; normal rats, iv bolus 5 μg/kg) of the same compound?
**A.** 13.2 ± 3.5 µmol/min

**Q.** And the UV urine volume (normal rats; normal rats, iv bolus 5 μg/kg)?
**A.** 79 ± 10 µL/min

**Q.** What about the “UcGMPV urine cGMP volume” value (normal rats; normal rats, iv bolus 5 μg/kg) of the same compound?
**A.** 605 ± 151 pmol/min

**Q.** And the HR heart rate (normal rats; normal rats, iv bolus 50 μg/kg)?
**A.** 355 ± 19 beats/min

**Q.** What about the “PcGMP plasma cGMP” value (normal rats; normal rats, iv bolus 50 μg/kg) of the same compound?
**A.** 25.7 ± 7.1 pmol/mL

**Q.** And the “RAP right atrial pressure” value (normal rats; normal rats, iv bolus 50 μg/kg)?
**A.** -3.8 ± 0.8 mmHg

**Q.** What about the “UKV urine potassium excretion” value (normal rats; normal rats, iv bolus 50 μg/kg) of the same compound?
**A.** 24.4 ± 8.7 µmol/min

**Q.** What about the “UNaV urine sodium excretion” value (normal rats; normal rats, iv bolus 50 μg/kg) of the same compound?
**A.** 68.2 ± 15.7 µmol/min

**Q.** What about the UV urine volume (normal rats; normal rats, iv bolus 50 μg/kg) of the same compound?
**A.** 341 ± 41 µL/min

**Q.** And the “UcGMPV urine cGMP volume” value (normal rats; normal rats, iv bolus 50 μg/kg)?
**A.** 2580 ± 505 pmol/min

**Q.** And the “MAP mean arterial pressure” value (normal rats; normal rats, recovery period after 30-min washout)?
**A.** 92 ± 11 mmHg

**Q.** What about the HR heart rate (normal rats; normal rats, recovery period) of the same compound?
**A.** 368 ± 23 beats/min

**Q.** And the “PcGMP plasma cGMP” value (normal rats; normal rats, recovery period)?
**A.** 3.2 ± 0.3 pmol/mL

**Q.** What about the “RAP right atrial pressure” value (normal rats; normal rats, recovery period) of the same compound?
**A.** -0.8 ± 0.9 mmHg

**Q.** And the “UKV urine potassium excretion” value (normal rats; normal rats, recovery period)?
**A.** 2.4 ± 0.1 µmol/min

**Q.** What about the “UNaV urine sodium excretion” value (normal rats; normal rats, recovery period) of the same compound?
**A.** 8.9 ± 3.5 µmol/min

**Q.** What about the UV urine volume (normal rats; normal rats, recovery period) of the same compound?
**A.** 48 ± 14 µL/min

**Q.** And the “UcGMPV urine cGMP volume” value (normal rats; normal rats, recovery period)?
**A.** 105 ± 63 pmol/min

**Q.** What about the “MAP mean arterial pressure” value (normal rats; normal rats, second iv bolus 50 μg/kg, 15-min period) of the same compound?
**A.** 69 ± 7 mmHg
